# Assay results from the kinase profiling compilation of Christmann-Franck et al. (2016).
# Tests used:
# ALK (human) = ALK (human) (UniProt Q9UM73); assay: KINOMEscan competition binding; settings: compound 10.0 µM
# CAMK1D (human) = CAMK1D (human) (UniProt Q8IU85); assay: KINOMEscan competition binding; settings: compound 10.0 µM
# CAMK2A (human) = CAMK2A (human) (UniProt Q9UQM7); assay: KINOMEscan competition binding; settings: compound 10.0 µM
# CAMK2G (human) = CAMK2G (human) (UniProt Q13555); assay: KINOMEscan competition binding; settings: compound 10.0 µM
# CAMKK2 (human) = CAMKK2 (human) (UniProt Q96RR4); assay: KINOMEscan competition binding; settings: compound 10.0 µM
# CLK1 (human) = CLK1 (human) (UniProt P49759); assay: KINOMEscan competition binding; settings: compound 10.0 µM
# CLK2 (human) = CLK2 (human) (UniProt P49760); assay: KINOMEscan competition binding; settings: compound 10.0 µM
# DAPK1 (human) = DAPK1 (human) (UniProt P53355); assay: KINOMEscan competition binding; settings: compound 10.0 µM
# DAPK3 (human) = DAPK3 (human) (UniProt O43293); assay: KINOMEscan competition binding; settings: compound 10.0 µM
# DCLK1 (human) = DCLK1 (human) (UniProt O15075); assay: KINOMEscan competition binding; settings: compound 10.0 µM
# DCLK1 (human), sequence (O15075 whole entry, looked up): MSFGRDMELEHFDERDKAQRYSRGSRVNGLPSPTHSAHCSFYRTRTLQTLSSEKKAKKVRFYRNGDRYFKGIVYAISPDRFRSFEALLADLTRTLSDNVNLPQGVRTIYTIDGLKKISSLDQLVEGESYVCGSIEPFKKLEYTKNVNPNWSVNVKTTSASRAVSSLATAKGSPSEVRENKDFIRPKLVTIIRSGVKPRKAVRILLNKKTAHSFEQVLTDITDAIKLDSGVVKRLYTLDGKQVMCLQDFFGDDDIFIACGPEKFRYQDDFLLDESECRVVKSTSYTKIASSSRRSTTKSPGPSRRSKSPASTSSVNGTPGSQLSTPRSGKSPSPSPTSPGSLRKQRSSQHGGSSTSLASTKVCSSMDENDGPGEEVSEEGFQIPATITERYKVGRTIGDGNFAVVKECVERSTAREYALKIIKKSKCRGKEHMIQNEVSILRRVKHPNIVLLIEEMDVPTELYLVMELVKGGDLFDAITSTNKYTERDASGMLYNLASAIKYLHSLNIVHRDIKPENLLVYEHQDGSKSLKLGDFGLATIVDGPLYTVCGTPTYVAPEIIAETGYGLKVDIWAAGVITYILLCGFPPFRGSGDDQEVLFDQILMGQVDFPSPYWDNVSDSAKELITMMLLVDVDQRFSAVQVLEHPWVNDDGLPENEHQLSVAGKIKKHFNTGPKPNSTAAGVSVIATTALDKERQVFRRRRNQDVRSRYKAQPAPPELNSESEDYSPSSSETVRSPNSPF
# DCLK2 (human) = DCLK2 (human) (UniProt Q8N568); assay: KINOMEscan competition binding; settings: compound 10.0 µM
# DCLK2 (human), sequence (Q8N568 whole entry, looked up): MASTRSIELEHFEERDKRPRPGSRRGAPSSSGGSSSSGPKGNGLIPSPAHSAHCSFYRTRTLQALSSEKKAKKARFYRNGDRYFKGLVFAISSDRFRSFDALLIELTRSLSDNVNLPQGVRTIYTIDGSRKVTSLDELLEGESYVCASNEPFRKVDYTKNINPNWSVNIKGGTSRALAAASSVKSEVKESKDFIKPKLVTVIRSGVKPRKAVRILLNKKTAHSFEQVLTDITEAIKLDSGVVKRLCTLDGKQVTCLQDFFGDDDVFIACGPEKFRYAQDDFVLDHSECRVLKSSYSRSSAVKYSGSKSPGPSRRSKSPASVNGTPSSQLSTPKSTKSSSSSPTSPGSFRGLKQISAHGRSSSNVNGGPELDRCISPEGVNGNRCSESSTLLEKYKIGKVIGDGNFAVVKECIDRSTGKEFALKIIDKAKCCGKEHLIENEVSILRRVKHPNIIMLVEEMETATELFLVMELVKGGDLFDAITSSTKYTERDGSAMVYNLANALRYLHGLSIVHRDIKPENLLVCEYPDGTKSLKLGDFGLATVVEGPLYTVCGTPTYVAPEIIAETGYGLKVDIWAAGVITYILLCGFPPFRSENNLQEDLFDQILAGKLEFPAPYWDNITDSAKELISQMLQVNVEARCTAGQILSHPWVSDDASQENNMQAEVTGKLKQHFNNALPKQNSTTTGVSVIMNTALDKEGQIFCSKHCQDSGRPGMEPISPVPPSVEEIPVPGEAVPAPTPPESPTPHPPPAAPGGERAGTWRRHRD
# FER (human) = FER (human) (UniProt P16591); assay: KINOMEscan competition binding; settings: compound 10.0 µM
# GAK (human) = GAK (human) (UniProt O14976); assay: KINOMEscan competition binding; settings: compound 10.0 µM
# IGF1R (human) = IGF1R (human) (UniProt P08069); assay: KINOMEscan competition binding; settings: compound 10.0 µM
# INSRR (human) = INSRR (human) (UniProt P14616); assay: KINOMEscan competition binding; settings: compound 10.0 µM
# [1] = molecular target: JAK1 JH2 pseudokinase (human) (UniProt P23458); assay: KINOMEscan competition binding; settings: compound 10.0 µM
# MYLK (human) = MYLK (human) (UniProt Q15746); assay: KINOMEscan competition binding; settings: compound 10.0 µM
# PLK1 (human) = PLK1 (human) (UniProt P53350); assay: KINOMEscan competition binding; settings: compound 10.0 µM
# PLK1 (human), sequence (P53350 whole entry, looked up): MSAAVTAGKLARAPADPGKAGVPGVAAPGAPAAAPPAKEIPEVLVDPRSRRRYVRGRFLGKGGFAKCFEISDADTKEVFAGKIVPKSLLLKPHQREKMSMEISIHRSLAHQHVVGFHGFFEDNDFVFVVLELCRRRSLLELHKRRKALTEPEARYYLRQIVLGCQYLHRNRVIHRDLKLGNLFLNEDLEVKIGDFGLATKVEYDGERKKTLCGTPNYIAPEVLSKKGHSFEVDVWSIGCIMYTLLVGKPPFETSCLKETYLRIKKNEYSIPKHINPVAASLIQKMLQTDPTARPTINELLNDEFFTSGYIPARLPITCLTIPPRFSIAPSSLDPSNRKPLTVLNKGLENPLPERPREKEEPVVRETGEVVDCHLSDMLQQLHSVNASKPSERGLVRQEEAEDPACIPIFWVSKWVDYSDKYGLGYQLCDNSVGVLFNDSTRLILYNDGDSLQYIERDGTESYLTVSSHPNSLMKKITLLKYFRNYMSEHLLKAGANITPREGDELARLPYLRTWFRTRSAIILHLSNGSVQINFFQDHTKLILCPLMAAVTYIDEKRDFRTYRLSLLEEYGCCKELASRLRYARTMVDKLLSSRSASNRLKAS
# PLK3 (human) = PLK3 (human) (UniProt Q9H4B4); assay: KINOMEscan competition binding; settings: compound 10.0 µM
# PRKD3 (human) = PRKD3 (human) (UniProt O94806); assay: KINOMEscan competition binding; settings: compound 10.0 µM
# PTK2 (human) = PTK2 (human) (UniProt Q05397); assay: KINOMEscan competition binding; settings: compound 10.0 µM
# PTK2B (human) = PTK2B (human) (UniProt Q14289); assay: KINOMEscan competition binding; settings: compound 10.0 µM
# PTK2B (human), sequence (Q14289 whole entry, looked up): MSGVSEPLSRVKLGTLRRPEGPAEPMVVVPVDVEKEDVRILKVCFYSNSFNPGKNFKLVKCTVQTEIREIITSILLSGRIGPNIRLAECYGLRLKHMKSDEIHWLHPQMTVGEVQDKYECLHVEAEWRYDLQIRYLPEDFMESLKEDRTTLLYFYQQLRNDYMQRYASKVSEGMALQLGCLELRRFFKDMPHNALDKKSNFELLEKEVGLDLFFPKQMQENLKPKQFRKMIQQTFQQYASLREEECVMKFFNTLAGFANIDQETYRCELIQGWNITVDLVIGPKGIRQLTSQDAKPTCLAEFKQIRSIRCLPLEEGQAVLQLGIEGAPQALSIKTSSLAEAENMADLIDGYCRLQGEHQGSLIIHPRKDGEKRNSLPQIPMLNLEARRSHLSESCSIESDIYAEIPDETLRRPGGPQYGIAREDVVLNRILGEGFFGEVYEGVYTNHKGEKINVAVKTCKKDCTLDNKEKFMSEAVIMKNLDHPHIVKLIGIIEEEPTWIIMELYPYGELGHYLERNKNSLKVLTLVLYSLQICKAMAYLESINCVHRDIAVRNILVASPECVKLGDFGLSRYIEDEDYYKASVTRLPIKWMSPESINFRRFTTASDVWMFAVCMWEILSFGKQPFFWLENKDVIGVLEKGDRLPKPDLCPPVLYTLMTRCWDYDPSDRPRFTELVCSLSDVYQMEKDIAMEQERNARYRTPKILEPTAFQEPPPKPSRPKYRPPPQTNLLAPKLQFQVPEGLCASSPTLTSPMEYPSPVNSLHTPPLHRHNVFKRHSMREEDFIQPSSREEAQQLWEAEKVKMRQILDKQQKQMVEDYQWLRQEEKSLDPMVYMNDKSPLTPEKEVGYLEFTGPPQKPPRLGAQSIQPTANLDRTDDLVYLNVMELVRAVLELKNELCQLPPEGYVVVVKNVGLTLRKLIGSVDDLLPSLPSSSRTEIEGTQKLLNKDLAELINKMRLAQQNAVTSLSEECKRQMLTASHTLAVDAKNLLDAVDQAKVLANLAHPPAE
# RPS6KA1 KD2 (human) = RPS6KA1 KD2 (human) (UniProt Q15418); assay: KINOMEscan competition binding; settings: compound 10.0 µM
# RPS6KA2 KD2 (human) = RPS6KA2 KD2 (human) (UniProt Q15349); assay: KINOMEscan competition binding; settings: compound 10.0 µM
# RPS6KA6 KD2 (human) = RPS6KA6 KD2 (human) (UniProt Q9UK32); assay: KINOMEscan competition binding; settings: compound 10.0 µM
# SLK (human) = SLK (human) (UniProt Q9H2G2); assay: KINOMEscan competition binding; settings: compound 10.0 µM
# SLK (human), sequence (Q9H2G2 whole entry, looked up): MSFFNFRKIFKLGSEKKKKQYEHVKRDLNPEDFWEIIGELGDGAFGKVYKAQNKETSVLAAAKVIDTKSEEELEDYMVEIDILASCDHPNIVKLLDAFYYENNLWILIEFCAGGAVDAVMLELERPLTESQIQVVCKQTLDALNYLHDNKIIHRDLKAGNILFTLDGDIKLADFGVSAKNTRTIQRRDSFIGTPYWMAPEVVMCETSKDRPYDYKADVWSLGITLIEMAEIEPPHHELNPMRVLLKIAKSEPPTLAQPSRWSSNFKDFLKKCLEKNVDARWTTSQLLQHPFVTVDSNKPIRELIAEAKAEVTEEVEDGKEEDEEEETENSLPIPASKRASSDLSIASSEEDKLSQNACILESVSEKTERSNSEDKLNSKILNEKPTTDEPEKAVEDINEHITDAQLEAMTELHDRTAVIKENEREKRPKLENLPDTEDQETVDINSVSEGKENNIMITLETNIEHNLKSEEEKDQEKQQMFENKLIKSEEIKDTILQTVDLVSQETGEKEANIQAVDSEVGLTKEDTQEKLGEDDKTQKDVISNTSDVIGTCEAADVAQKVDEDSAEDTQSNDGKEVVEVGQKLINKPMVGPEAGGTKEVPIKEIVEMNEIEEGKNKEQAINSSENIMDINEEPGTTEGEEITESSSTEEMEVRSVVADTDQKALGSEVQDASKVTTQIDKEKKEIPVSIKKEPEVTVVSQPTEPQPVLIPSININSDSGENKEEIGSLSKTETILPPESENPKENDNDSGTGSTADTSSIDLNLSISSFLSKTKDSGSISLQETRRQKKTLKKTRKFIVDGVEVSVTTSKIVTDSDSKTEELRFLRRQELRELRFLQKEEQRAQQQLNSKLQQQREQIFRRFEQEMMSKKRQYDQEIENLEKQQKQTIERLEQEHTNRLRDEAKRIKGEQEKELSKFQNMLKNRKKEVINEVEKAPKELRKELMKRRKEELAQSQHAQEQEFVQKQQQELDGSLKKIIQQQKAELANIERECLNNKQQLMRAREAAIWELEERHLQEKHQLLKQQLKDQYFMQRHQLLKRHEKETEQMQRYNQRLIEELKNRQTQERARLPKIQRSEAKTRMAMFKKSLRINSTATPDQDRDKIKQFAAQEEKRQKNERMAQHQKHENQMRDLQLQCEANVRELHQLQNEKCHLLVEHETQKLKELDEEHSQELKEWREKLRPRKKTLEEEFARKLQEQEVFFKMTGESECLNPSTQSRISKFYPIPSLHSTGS
# STK10 (human) = STK10 (human) (UniProt O94804); assay: KINOMEscan competition binding; settings: compound 10.0 µM
# STK33 (human) = STK33 (human) (UniProt Q9BYT3); assay: KINOMEscan competition binding; settings: compound 10.0 µM
# STK33 (human), sequence (Q9BYT3 whole entry, looked up): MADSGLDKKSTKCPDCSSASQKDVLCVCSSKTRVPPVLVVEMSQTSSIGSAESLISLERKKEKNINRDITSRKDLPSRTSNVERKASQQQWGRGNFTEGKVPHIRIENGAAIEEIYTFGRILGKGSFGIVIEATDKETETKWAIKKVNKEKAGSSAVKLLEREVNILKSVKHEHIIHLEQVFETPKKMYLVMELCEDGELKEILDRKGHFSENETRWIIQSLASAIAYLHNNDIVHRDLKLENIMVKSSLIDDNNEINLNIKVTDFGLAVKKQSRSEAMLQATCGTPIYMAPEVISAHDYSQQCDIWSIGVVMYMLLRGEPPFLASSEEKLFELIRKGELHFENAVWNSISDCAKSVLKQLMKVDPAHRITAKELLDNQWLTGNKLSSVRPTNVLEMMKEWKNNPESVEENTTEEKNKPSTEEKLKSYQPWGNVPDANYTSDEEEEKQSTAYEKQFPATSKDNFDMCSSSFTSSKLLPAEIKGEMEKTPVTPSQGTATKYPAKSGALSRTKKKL
# TTK (human) [2] = molecular target: TTK (human) (UniProt P33981); assay: KINOMEscan competition binding; settings: for kinase still bound, per cent of control: compound 10.0 µM
# TTK (human) [3] = molecular target: TTK (human) (UniProt P33981); assay: SelectScreen, TR FRET
# [4] = system: EGFR (human), P00533 [747-751 del / S ins]; assay: KINOMEscan competition binding; settings: compound 10.0 µM
# [5] = system: EGFR (human), P00533 [A750P; 747-749 del]; assay: KINOMEscan competition binding; settings: compound 10.0 µM
# [6] = system: EGFR (human), P00533 [G719C; 746-750 del]; assay: KINOMEscan competition binding; settings: compound 10.0 µM
# [7] = system: EGFR (human), P00533 [L861Q]; assay: KINOMEscan competition binding; settings: compound 10.0 µM
# [8] = system: EGFR (human), P00533 [P753S; 747-752 del]; assay: KINOMEscan competition binding; settings: compound 10.0 µM
# PLK4 (human) = PLK4 (human) (UniProt O00444); assay: KINOMEscan competition binding; settings: compound 10.0 µM
# ULK2 (human) = ULK2 (human) (UniProt Q8IYT8); assay: KINOMEscan competition binding; settings: compound 10.0 µM
# [9] = system: ABL1 (human), P00519 [F317I]; assay: KINOMEscan competition binding; settings: compound 10.0 µM
# DCLK3 (human) = DCLK3 (human) (UniProt Q9C098); assay: KINOMEscan competition binding; settings: compound 10.0 µM
# FLT3 (human) = FLT3 (human) (UniProt P36888); assay: KINOMEscan competition binding; settings: compound 10.0 µM
# [10] = system: FLT3 (human), P36888 [D835H]; assay: KINOMEscan competition binding; settings: compound 10.0 µM
# [11] = system: FLT3 (human), P36888 [D835Y]; assay: KINOMEscan competition binding; settings: compound 10.0 µM
# [12] = system: FLT3 (human), P36888 [ITD]; assay: KINOMEscan competition binding; settings: compound 10.0 µM
# [13] = system: FLT3 (human), P36888 [K663Q]; assay: KINOMEscan competition binding; settings: compound 10.0 µM
# [14] = system: FLT3 (human), P36888 [N841I]; assay: KINOMEscan competition binding; settings: compound 10.0 µM
# MAPK7 (human) = MAPK7 (human) (UniProt Q13164); assay: KINOMEscan competition binding; settings: compound 10.0 µM
# MYLK4 (human) = MYLK4 (human) (UniProt Q86YV6); assay: KINOMEscan competition binding; settings: compound 10.0 µM
# PIP5K1A (human) = PIP5K1A (human) (UniProt Q99755); assay: KINOMEscan competition binding; settings: compound 10.0 µM
# PTK6 (human) = PTK6 (human) (UniProt Q13882); assay: KINOMEscan competition binding; settings: compound 10.0 µM
# TNK2 (human) = TNK2 (human) (UniProt Q07912); assay: KINOMEscan competition binding; settings: compound 10.0 µM
# [15] = system: EGFR (human), P00533 [752-759 del]; assay: KINOMEscan competition binding; settings: compound 10.0 µM
# [16] = system: EGFR (human), P00533 [L858R]; assay: KINOMEscan competition binding; settings: compound 10.0 µM
# NLK (human) = NLK (human) (UniProt Q9UBE8); assay: KINOMEscan competition binding; settings: compound 10.0 µM
# ROS1 (human) = ROS1 (human) (UniProt P08922); assay: KINOMEscan competition binding; settings: compound 10.0 µM
# TNK1 (human) = TNK1 (human) (UniProt Q13470); assay: KINOMEscan competition binding; settings: compound 10.0 µM
# CDK11A (human) = CDK11A (human) (UniProt Q9UQ88); assay: KINOMEscan competition binding; settings: compound 10.0 µM
# CAMK2D (human) = CAMK2D (human) (UniProt Q13557); assay: KINOMEscan competition binding; settings: compound 10.0 µM
# PIK3C2B (human) = PIK3C2B (human) (UniProt O00750); assay: KINOMEscan competition binding; settings: compound 10.0 µM
Compound,"kinase still bound, per cent of control (ALK (human)) [%]","kinase still bound, per cent of control (CAMKK2 (human)) [%]","kinase still bound, per cent of control (DCLK1 (human)) [%]","kinase still bound, per cent of control (DCLK2 (human)) [%]","kinase still bound, per cent of control (GAK (human)) [%]","kinase still bound, per cent of control (MYLK (human)) [%]","kinase still bound, per cent of control (PLK1 (human)) [%]","kinase still bound, per cent of control (PLK3 (human)) [%]","kinase still bound, per cent of control (PTK2 (human)) [%]","kinase still bound, per cent of control (PTK2B (human)) [%]","kinase still bound, per cent of control (RPS6KA1 KD2 (human)) [%]","kinase still bound, per cent of control (RPS6KA2 KD2 (human)) [%]","kinase still bound, per cent of control (RPS6KA6 KD2 (human)) [%]","kinase still bound, per cent of control (SLK (human)) [%]","kinase still bound, per cent of control (STK33 (human)) [%]","kinase still bound, per cent of control (TTK (human) [2]) [%]",other results
COc1cc(C(=O)NC2CCN(C)CC2)ccc1Nc1ncc2c(n1)N(C1CCCC1)C(C)CC(=O)N2C (stereo unspecified),6.2,24,4,19,3.8,2.8,19,0,0.4,13,22,5.8,12,1.4,3.6,4.6,"kinase still bound, per cent of control (CAMK1D (human)): 17%; kinase still bound, per cent of control (CAMK2A (human)): 21%; kinase still bound, per cent of control (CAMK2G (human)): 34%; kinase still bound, per cent of control (CLK1 (human)): 18%; kinase still bound, per cent of control (CLK2 (human)): 6.2%; kinase still bound, per cent of control (DAPK1 (human)): 26%; kinase still bound, per cent of control (DAPK3 (human)): 17%; kinase still bound, per cent of control (FER (human)): 31%; kinase still bound, per cent of control (IGF1R (human)): 32%; kinase still bound, per cent of control (INSRR (human)): 26%; kinase still bound, per cent of control [1]: 22%; kinase still bound, per cent of control (PRKD3 (human)): 32%; kinase still bound, per cent of control (STK10 (human)): 29%; Kd (TTK (human) [2]): 1.43 µM; IC50 (TTK (human) [3]): 5.04 µM"
COc1cc(N2CCC(N3CCN(C)CC3)CC2)ccc1Nc1ncc2c(n1)N(C1CCCC1)C(C)CC(=O)N2C (stereo unspecified),5,33,5.2,30,1.6,11,7.2,5.9,1.2,4.2,–,16,33,5.6,9,2,"kinase still bound, per cent of control [4]: 34%; kinase still bound, per cent of control [5]: 27%; kinase still bound, per cent of control [6]: 32%; kinase still bound, per cent of control [7]: 30%; kinase still bound, per cent of control [8]: 34%; kinase still bound, per cent of control (IGF1R (human)): 29%; kinase still bound, per cent of control (INSRR (human)): 33%; kinase still bound, per cent of control (PLK4 (human)): 26%; kinase still bound, per cent of control (ULK2 (human)): 24%"
CC(C)Oc1cc(N2CCN(C)CC2)ccc1Nc1ncc2c(n1)N(C)c1ccccc1C(=O)N2,–,–,1.2,5.3,–,–,–,–,–,–,14,–,21,–,–,–,"kinase still bound, per cent of control [9]: 26%; kinase still bound, per cent of control (DCLK3 (human)): 8.1%; kinase still bound, per cent of control (FLT3 (human)): 10%; kinase still bound, per cent of control [10]: 14%; kinase still bound, per cent of control [11]: 2.2%; kinase still bound, per cent of control [12]: 2.4%; kinase still bound, per cent of control [13]: 10%; kinase still bound, per cent of control [14]: 0.6%; kinase still bound, per cent of control (MAPK7 (human)): 29%; kinase still bound, per cent of control (MYLK4 (human)): 2.1%; kinase still bound, per cent of control (PIP5K1A (human)): 22%; kinase still bound, per cent of control (PTK6 (human)): 2.6%; kinase still bound, per cent of control (TNK2 (human)): 6.5%"
COc1cc(C(=O)NC2CCN(C)CC2)ccc1Nc1ncc2c(n1)N(CCc1ccccc1)CCC(=O)N2C,22,–,–,–,6.4,31,1.9,6.5,34,17,32,32,–,22,13,5.2,"kinase still bound, per cent of control [4]: 28%; kinase still bound, per cent of control [15]: 33%; kinase still bound, per cent of control [5]: 19%; kinase still bound, per cent of control [6]: 23%; kinase still bound, per cent of control [16]: 22%; kinase still bound, per cent of control [7]: 28%; kinase still bound, per cent of control [8]: 31%"
COc1cc(N2CCC(C(N)=O)CC2)ccc1Nc1ncc2c(n1)N(C1CCCC1)[C@@H]1CCC[C@@H]1C(=O)N2C,–,–,15,–,12,–,19,4.3,–,–,–,–,–,–,–,10,"kinase still bound, per cent of control (MAPK7 (human)): 0.1%; kinase still bound, per cent of control (NLK (human)): 31%; kinase still bound, per cent of control (PLK4 (human)): 28%; kinase still bound, per cent of control (ROS1 (human)): 31%; kinase still bound, per cent of control (TNK1 (human)): 18%"
CNS(=O)(=O)c1ccc(-c2ccc(C=C3C(=O)NC(=O)NC3=O)o2)cc1,–,–,–,–,–,–,–,–,–,–,–,–,–,–,–,–,residual activity (CDK11A (human)): 28%
Nc1cnc(/C=C/c2ccc(-c3ccc(S(N)(=O)=O)cc3)o2)cn1,–,28,–,–,–,–,–,–,–,–,–,–,–,–,–,–,"kinase still bound, per cent of control (CAMK2D (human)): 31%; kinase still bound, per cent of control (CAMK2G (human)): 34%; kinase still bound, per cent of control (PIK3C2B (human)): 31%"
